This is an account of results in patent US8354416B2 (Glaxo Group Limited, priority 2005, dated 2013).

The test system of this assay is influx of neutrophils to the lung in LPS-challenged rats. The assay can be described thus: Rat LPS neutrophilia model. The assay is classed as in vivo. To be noted: intratracheal, LPS aerosol 100 ug/ml, in at least one of the range of conditions tested, significance p<0.05. How it is done:
Rat LPS Neutrophilia Model
The effect of compounds on the influx of neutrophils to the lung in LPS-challenged rats is evaluated as follows. The test compound is suspended in one of the following solutions: 0.5% tween 80/PBS, 0.5% tween 80/saline, 10% EtOH/saline (with pH adjusted to 2.0, or 8.0 with HCl, or unadjusted), Saline (pH 2.0, 6.5 or 8.0, 0.5% Tragacanth, 1% DMSO/20% Encapsin/Saline, or acidified 5% Tragacanth. The suspension process may be aided by the use of a glass homogenizer. For intratracheal administration, the animals are anesthetized with inhaled isoflurane and placed in a supine position, the trachea is intubated with a steel gavage needle (1.5 inch, 22 gauge, small ball) or a Penn-Century Microsprayer Aerosolizer (model IA-1B) and 200 ul of dosing solution is delivered. The animals are visually monitored during the recovery process, which typically occurs within two minutes. It is noted that the test compounds may be alternatively administered via the microsprayer in a dry powder blend with a suitable excipient, such as lactose.
Rats treated with compound or vehicle (15 min-24 hours pretreatment) are exposed to an LPS aerosol (100 ug/ml) for 15 min. Four hours later the rats are euthanized with pentobarbital (100 mg/kg, i.p.) and the airways are lavaged with 5 washes of 5 ml of phosphate buffered saline. The harvested cells are stained (Diffquick) and counted to determine total and differential cell data. […] Inhibition of neutrophil levels relative to no compound controls is calculated based on the differential counts.
The data is obtained as % inhibition using a particular concentration and pretreat time.

The structures appear in SMILES notation. Counter-ions that a name gives are not always drawn.

As to `Cc1ccc(C(=O)Nc2nccs2)cc1-c1nc(NCCN(C)C)nc2c1ccc(=O)n2-c1c(F)cccc1F` [Example 109, 3-(8-(2,6-difluorophenyl)-2-{[2-(dimethylamino)ethyl]amino}-7-oxo-7,8-dihydropyrido[2,3-d]pyrimidin-4-yl)-4-methyl-N-1,3-thiazol-2-ylbenzamide], the “inhibition of neutrophilia (neutrophil levels in airway lavage relative to no compound controls)” value is recorded as “statistically significant inhibition of neutrophilia”. Take `Cc1ccc(C(=O)Nc2ccc(F)cc2)cc1-c1nc(NCCN(C)C)nc2c1ccc(=O)n2-c1c(F)cccc1F` [Example 112, 3-(8-(2,6-difluorophenyl)-2-{[2-(dimethylamino)ethyl]amino}-7-oxo-7,8-dihydropyrido[2,3-d]pyrimidin-4-yl)-N-(4-fluorophenyl)-4-methylbenzamide]: the “inhibition of neutrophilia (neutrophil levels in airway lavage relative to no compound controls)” value is reported as “statistically nonsignificant inhibition of neutrophilia”. Regarding `Cc1ccc(C(=O)Nc2ccc(F)cc2)cc1-c1nc(N(C)CCCN(C)C)nc2c1ccc(=O)n2-c1c(F)cccc1F` [Example 115, 3-{8-(2,6-difluorophenyl)-2-[[3-(dimethylamino)propyl](methyl)amino]-7-oxo-7,8-dihydropyrido[2,3-d]pyrimidin-4-yl}-N-(4-fluorophenyl)-4-methylbenzamide], the “inhibition of neutrophilia (neutrophil levels in airway lavage relative to no compound controls)” value is reported as “statistically nonsignificant inhibition of neutrophilia”.

With `Cc1ccc(C(=O)NC(C)C)cc1-c1nc(NCCN(C)C)nc2c1ccc(=O)n2-c1c(F)cccc1F` [Example 117, 3-(8-(2,6-difluorophenyl)-2-{[2-(dimethylamino)ethyl]amino}-7-oxo-7,8-dihydropyrido[2,3-d]pyrimidin-4-yl)-4-methyl-N-(1-methylethyl)benzamide], the “inhibition of neutrophilia (neutrophil levels in airway lavage relative to no compound controls)” value was “statistically significant inhibition of neutrophilia”. For `CCN(CC)CCCNc1nc(-c2cc(C(=O)NC)ccc2C)c2ccc(=O)n(-c3c(F)cccc3F)c2n1` [Example 119, 3-[2-{[3-(diethylamino)propyl]amino}-8-(2,6-difluorophenyl)-7-oxo-7,8-dihydropyrido[2,3-d]pyrimidin-4-yl]-N,4-dimethylbenzamide], the “inhibition of neutrophilia (neutrophil levels in airway lavage relative to no compound controls)” value is on record as “statistically significant inhibition of neutrophilia”. Consider `CCN(CC)CCCNc1nc(-c2cc(C(=O)N[C@H](C)C(C)C)ccc2C)c2ccc(=O)n(-c3c(F)cccc3F)c2n1` [Example 130], for which the “inhibition of neutrophilia (neutrophil levels in airway lavage relative to no compound controls)” value was “statistically nonsignificant inhibition of neutrophilia”.

Turning to `CCN(CC)CCCNc1nc(-c2cc(C(=O)NCC3CCCC3)ccc2C)c2ccc(=O)n(-c3c(F)cccc3F)c2n1` [Example 132, N-(cyclopentylmethyl)-3-[2-{[3-(diethylamino)propyl]amino}-8-(2,6-difluorophenyl)-7-oxo-7,8-dihydropyrido[2,3-d]pyrimidin-4-yl]-4-methylbenzamidetrifluoroacetate], the “inhibition of neutrophilia (neutrophil levels in airway lavage relative to no compound controls)” value is “statistically nonsignificant inhibition of neutrophilia”.

For the molecule `CCN(CC)CCCNc1nc(-c2cc(C(=O)NCCF)ccc2C)c2ccc(=O)n(-c3c(F)cccc3F)c2n1` [Example 133, 3-[2-{[3-(diethylamino)propyl]amino}-8-(2,6-difluorophenyl)-7-oxo-7,8-dihydropyrido[2,3-d]pyrimidin-4-yl]-N-(2-fluoroethyl)-4-methylbenzamidetrifluoroacetate], the “inhibition of neutrophilia (neutrophil levels in airway lavage relative to no compound controls)” value is “statistically significant inhibition of neutrophilia”. For the molecule `CCN(CC)CCCNc1nc(-c2cc(C(=O)NCCOC)ccc2C)c2ccc(=O)n(-c3c(F)cccc3F)c2n1` [Example 134, 3-[2-{[3-(diethylamino)propyl]amino}-8-(2,6-difluorophenyl)-7-oxo-7,8-dihydropyrido[2,3-d]pyrimidin-4-yl]-4-methyl-N-[2-(methyloxy)ethyl]benzamidetrifluoroacetate], the “inhibition of neutrophilia (neutrophil levels in airway lavage relative to no compound controls)” value is listed as “statistically nonsignificant inhibition of neutrophilia”. Take `CCN(CC)CCCNc1nc(-c2cc(C(=O)NCC3CCCCC3)ccc2C)c2ccc(=O)n(-c3c(F)cccc3F)c2n1` [Example 135, N-(cyclohexylmethyl)-3-[2-{[3-(diethylamino)propyl]amino}-8-(2,6-difluorophenyl)-7-oxo-7,8-dihydropyrido[2,3-d]pyrimidin-4-yl]-4-methylbenzamidetrifluoroacetate]: the “inhibition of neutrophilia (neutrophil levels in airway lavage relative to no compound controls)” value is “inactive”. The value for `CCN(CC)CCCNc1nc(-c2cc(C(=O)NC3CCC3)ccc2C)c2ccc(=O)n(-c3c(F)cccc3F)c2n1` [Example 137, N-cyclobutyl-3-[2-{[3-(diethylamino)propyl]amino}-8-(2,6-difluorophenyl)-7-oxo-7,8-dihydropyrido[2,3-d]pyrimidin-4-yl]-4-methylbenzamide trifluoroacetate] was “statistically significant inhibition of neutrophilia”; that for `CCN(CC)CCCNc1nc(-c2cc(C(=O)NCC3CC3)ccc2C)c2ccc(=O)n(-c3c(F)cccc3F)c2n1` [Example 138, N-(cyclopropylmethyl)-3-[2-{[3-(diethylamino)propyl]amino}-8-(2,6-difluorophenyl)-7-oxo-7,8-dihydropyrido[2,3-d]pyrimidin-4-yl]-4-methylbenzamide trifluoroacetate] was “statistically nonsignificant inhibition of neutrophilia”. On to `CCN(CC)CCCNc1nc(-c2cc(C(=O)Nc3ccccc3)ccc2C)c2ccc(=O)n(-c3c(F)cccc3F)c2n1` [Example 147, 3-[2-{[3-(diethylamino)propyl]amino}-8-(2,6-difluorophenyl)-7-oxo-7,8-dihydropyrido[2,3-d]pyrimidin-4-yl]-4-methyl-N-phenylbenzamide], for which the “inhibition of neutrophilia (neutrophil levels in airway lavage relative to no compound controls)” value was “statistically nonsignificant inhibition of neutrophilia”. For the molecule `CCN(CC)CCCNc1nc(-c2cc(C(=O)N[C@@H](C)c3ccccc3)ccc2C)c2ccc(=O)n(-c3c(F)cccc3F)c2n1` [Example 149, 3-[2-{[3-(diethylamino)propyl]amino}-8-(2,6-difluorophenyl)-7-oxo-7,8-dihydropyrido[2,3-d]pyrimidin-4-yl]-4-methyl-N-[(1S)-1-phenylethyl]benzamide], the “inhibition of neutrophilia (neutrophil levels in airway lavage relative to no compound controls)” value is “inactive”.

`CCN(CC)CCCNc1nc(-c2cc(C(=O)Nc3ccc(F)cc3)ccc2C)c2ccc(=O)n(-c3c(F)cccc3F)c2n1` [Example 160, 3-[2-{[3-(diethylamino)propyl]amino}-8-(2,6-difluorophenyl)-7-oxo-7,8-dihydropyrido[2,3-d]pyrimidin-4-yl]-N-(4-fluorophenyl)-4-methylbenzamide]: the “inhibition of neutrophilia (neutrophil levels in airway lavage relative to no compound controls)” value was “statistically significant inhibition of neutrophilia”. For the molecule `CCC(C)NC(=O)c1ccc(C)c(-c2nc(NCCCN(CC)CC)nc3c2ccc(=O)n3-c2c(F)cccc2F)c1` (centres unmarked) [Example 162, 3-[2-{[3-(diethylamino)propyl]amino}-8-(2,6-difluorophenyl)-7-oxo-7,8-dihydropyrido[2,3-d]pyrimidin-4-yl]-4-methyl-N-(1-methylpropyl)benzamide], the “inhibition of neutrophilia (neutrophil levels in airway lavage relative to no compound controls)” value is given as “statistically nonsignificant inhibition of neutrophilia”. With `CCCNC(=O)c1ccc(C)c(-c2nc(N3CCC(N4CCC(C)CC4)CC3)nc3c2ccc(=O)n3-c2c(F)cccc2F)c1` [Example 166, 3-[8-(2,6-difluorophenyl)-2-(4-methyl-1,4′-bipiperidin-1′-yl)-7-oxo-7,8-dihydropyrido[2,3-d]pyrimidin-4-yl]-4-methyl-N-propylbenzamide], the “inhibition of neutrophilia (neutrophil levels in airway lavage relative to no compound controls)” value is given as “statistically significant inhibition of neutrophilia”.

As for `CCCCNC(=O)c1ccc(C)c(-c2nc(N3CCC(N4CCC(C)CC4)CC3)nc3c2ccc(=O)n3-c2c(F)cccc2F)c1` [Example 167, N-butyl-3-[8-(2,6-difluorophenyl)-2-(4-methyl-1,4′-bipiperidin-1′-yl)-7-oxo-7,8-dihydropyrido[2,3-d]pyrimidin-4-yl]-4-methylbenzamide], the “inhibition of neutrophilia (neutrophil levels in airway lavage relative to no compound controls)” value is “statistically significant inhibition of neutrophilia”. Take `Cc1ccc(C(=O)NCC(C)C)cc1-c1nc(N2CCC(N3CCC(C)CC3)CC2)nc2c1ccc(=O)n2-c1c(F)cccc1F` [Example 168, 3-[8-(2,6-difluorophenyl)-2-(4-methyl-1,4′-bipiperidin-1′-yl)-7-oxo-7,8-dihydropyrido[2,3-d]pyrimidin-4-yl]-4-methyl-N-(2-methylpropyl)benzamide]: the “inhibition of neutrophilia (neutrophil levels in airway lavage relative to no compound controls)” value is “inactive”. The value for `Cc1ccc(C(=O)NC2CCCC2)cc1-c1nc(N2CCC(N3CCC(C)CC3)CC2)nc2c1ccc(=O)n2-c1c(F)cccc1F` [Example 169, N-cyclopentyl-3-[8-(2,6-difluorophenyl)-2-(4-methyl-1,4′-bipiperidin-1′-yl)-7-oxo-7,8-dihydropyrido[2,3-d]pyrimidin-4-yl]-4-methylbenzamide] was “statistically nonsignificant inhibition of neutrophilia”.
